Experimental data taken from patent publication US6423347B1, “Method and product using sturgeon notochord for alleviating the symptoms of arthritis” (Abbott Laboratories, priority 1997, dated 2002).
Read-outs that look alike come from different tables or passages of the source.

What was measured:
[1] = tested on: collagen-induced arthritis (CIA); format: in vivo
Method: These Examples were conducted to investigate the effectiveness of sturgeon notochord in protecting mice from collagen-induced arthritis (CIA). Female DBA/1 Lac J strain mice, approximately 6-8 weeks of age, were obtained from Jackson Laboratories of Bar Harbor, Maine. Three groups of 20 mice per group were acclimated to their surroundings for 7 days. A standard mouse chow (Purina Certified Mouse Chow #5015; 11% by wt. fat; collagen-free) and water were provided for ad libitum consumption to all animals.
Bovine serum albumin (a protein derived from non-connective tissue) and cod skin gelatin (a protein derived from another connective tissue containing Type I collagen of a fish) served as negative controls. Sturgeon notochord was obtained from farm raised sturgeon and pulverized in liquid nitrogen. The level of each test composition was equilibrated to a 300 μg protein dose based on protein (including collagen) content. Test articles were dissolved/suspended in 0.01 M acetic acid and 0.3 ml was administered per dose to each mouse with a ball tipped feeding needle.
On Day 0, the mice were immunized at the base of the tail with 100 μg of bovine CII which was emulsified in Complete Freund's Adjuvant (CFA). On Day 7, a second booster dose of 100 μg bovine CII in CFA was administered by the same route. On Day 14, the mice were injected subcutaneously with 100 μg of lipopolysaccharide (LPS). This protocol represents a mild induction of CIA.
Mice were inspected daily for the onset of CIA, characterized by erythema and edema. Limbs were clinically evaluated and graded on a scale of 0 to 3 (0, absence of arthritis; 1, mild swelling and erythema; 2, swelling and erythema of both tarsus and ankle; 3, ankylosis and bone deformity). […] All mice were euthanized by CO2 on Day 50.

[2] = tested on: chronic CIA induced by using human CII; assay: Chronic CIA induced by human type II collagen; format: in vivo, Female DBA/1 Lac J strain mice; details: 0.1 mg dexamethasone/kg BW on Days 21 and 35
Method: Effect of Sturgeon Notochord in a Chronic Arthritis Induced by Human Type II Collagen This experiment was conducted to investigate the effectiveness of sturgeon notochord in protecting mice from chronic CIA induced by using human CII (unlike other examples in this application which used bovine CII). Female DBA/1 Lac J strain mice, approximately 6-8 weeks of age, were obtained from Jackson Laboratories of Bar Harbor, Maine. Animals were acclimated to their surroundings for 7 days. A standard mouse chow (Teklad diet) and water were provided for ad libitum consumption.
The chronic CIA induction was achieved by immunizing each mice on Day 0 and Day 21 at the base of the tail with […] of human CII which was emulsified in CFA. Animals in the vehicle control group and Dexamethasone control group received 0.01 M acetic acid on Days −10, −7, −5, and −2 and 0.1 mg dexamethasone/kg BW on Days 21 and 35, respectively. The mice receiving sturgeon notochord were divided into three groups and they were dosed with 100 mg collagen per dose dissolved/suspended in 0.01 M acetic acid and 0.3 ml was administered. Group 1 received sturgeon notochord on Days −10, −7, −5, and −2; Group 2, on Days 7, 10, 12, and 14; Group 3, Days 28, 31, 33, and 35.
Mice were inspected daily for the onset of CIA, characterized by erythema and edema. Limbs were clinically evaluated and graded on a scale of 0 to 6 (0, absence of arthritis; 0.5, one or more digits swollen or only the paw swollen; 1, entire paw swollen; 2, entire paw severely swollen; 3, mild deformity after inflammation subsides; 4, severe deformity; 5, mild ankylosis with partial loss of joint function in the paw; 6, severe ankylosis with total loss of joint function in the paw). […]

[3] = tested on: collagen-induced arthritis (CIA); assay: Dose response of sturgeon notochord in protecting mice from CIA; format: in vivo, DBA/1 Lac J strain mice; details: 0.1 mg/kg p.o.
Method: To evaluate the dose response of sturgeon notochord in protecting mice from CIA, this experiment was conducted in a manner similar to Examples II and III. The mice were DBA/1 Lac J strain supplied by Jackson Laboratories of Bar Harbor, Maine. All mice were female and about 6-8 weeks of age. Eight groups of 10-15 mice per group were acclimated to their surroundings for 7 days. A standard mouse chow and water were provided for ad libitum consumption to all animals.
On Days[…] −10, −7, −5 and −2 prior to immunization, mice were sensitized by sturgeon notochord. A group fed only vehicle was used as the negative control and a group fed with an effective dose of dexamethasone (0.1 mg/kg per os) was used as the positive control. Sturgeon notochord was obtained from farm raised sturgeon and pulverized in liquid nitrogen. The dose level of sturgeon notochord was equilibrated to 1, 3, 10, 30, 100 or 300 μg of collagen per dose based on the protein and collagen content. Sturgeon notochord was dissolved/suspended in 0.01 M acetic acid and 0.3 ml was administered to each mouse with a ball tipped feeding needle.
On Day 0, the mice were immunized at the base of the tail with 100 μg of bovine CII which was emulsified in CFA. On Day 21, the mice were injected subcutaneously with 50 μg of LPS.
Mice were inspected daily for the onset of CIA, characterized by erythema and edema. Limbs were clinically evaluated and graded on a scale of 0 to 6 as described in Example III.
The inventors continued to observe four selected groups (vehicle control group, sturgeon notochord 0.105 mg/dose group, sturgeon notochord 1.053 mg/dose group, and dexamethasone group) until Day 79. Severity scores plotted against days post-sensitization are found in FIG. 1.

bovine serum albumin [BSA]
median day of onset ([1]; 300 μg protein dose oral on Days −10, −7, −5 and −2): 17 days | # animals with arthritis ([1]; Day 20, 300 μg protein dose oral on Days −10, −7, −5 and −2): 12 | # animals with arthritis ([1]; Day 28, 300 μg protein dose oral on Days −10, −7, −5 and −2): 12 | # animals with arthritis ([1]; Day 40, 300 μg protein dose oral on Days −10, −7, −5 and −2): 12 | # animals with arthritis ([1]; Day 50, 300 μg protein dose oral on Days −10, −7, −5 and −2): 14 | % onset ([1]; calculated based on the Day 50 data, 300 μg protein dose): 78% | mean severity score ([1]; scale of 0 to 3, based on Day 20, 29, 34, 43 and 50 data, 300 μg protein dose): 2.05

C[C@@H]1C[C@H]2[C@@H]3CCC4=CC(=O)C=C[C@]4(C)[C@@]3(F)[C@@H](O)C[C@]2(C)[C@@]1(O)C(=O)CO [Dexamethasone]
% incidence ([2]; D28): 33% | severity score ([2]; D28): 0.25 | % incidence ([2]; D35): 67% | severity score ([2]; D35): 0.42 | % incidence ([2]; D42): 100% | severity score ([2]; D42): 1.75 | % incidence ([2]; D49): 100% | severity score ([2]; D49): 3.58 | % of incidence ([3]; D26): 40% | severity score ([3]; D26): 1.0 ± 0.4 | % of incidence ([3]; D28): 50% | severity score ([3]; D28): 1.1 ± 0.4 | % of incidence ([3]; D35): 50% | severity score ([3]; D35): 1.1 ± 0.4
